Measurements reported in patent US11524966B1 (Valo Early Discovery, Inc., priority 2017, dated 2022).

molecular target: T1, USP28 (His-tagged USP28-FL-mammalian) (Homo sapiens, UniProt Q96RU2); assay: Ubiquitin-Rhodamine 110 Assay for USP28 Activity, Example A-1(a); assay type: biochemical; conditions: Ubiquitin-Rhodamine 110 assay, Example A-1(a); read-out: USP28 A-1(a) IC50 range
T1 construct: Expression of USP28 (1-1077)-TEV-6*His (pTT5 vector); made in house; host or cells: Expi293f cells (pTT5 vector)
T1 sequence (Q96RU2 1-1077): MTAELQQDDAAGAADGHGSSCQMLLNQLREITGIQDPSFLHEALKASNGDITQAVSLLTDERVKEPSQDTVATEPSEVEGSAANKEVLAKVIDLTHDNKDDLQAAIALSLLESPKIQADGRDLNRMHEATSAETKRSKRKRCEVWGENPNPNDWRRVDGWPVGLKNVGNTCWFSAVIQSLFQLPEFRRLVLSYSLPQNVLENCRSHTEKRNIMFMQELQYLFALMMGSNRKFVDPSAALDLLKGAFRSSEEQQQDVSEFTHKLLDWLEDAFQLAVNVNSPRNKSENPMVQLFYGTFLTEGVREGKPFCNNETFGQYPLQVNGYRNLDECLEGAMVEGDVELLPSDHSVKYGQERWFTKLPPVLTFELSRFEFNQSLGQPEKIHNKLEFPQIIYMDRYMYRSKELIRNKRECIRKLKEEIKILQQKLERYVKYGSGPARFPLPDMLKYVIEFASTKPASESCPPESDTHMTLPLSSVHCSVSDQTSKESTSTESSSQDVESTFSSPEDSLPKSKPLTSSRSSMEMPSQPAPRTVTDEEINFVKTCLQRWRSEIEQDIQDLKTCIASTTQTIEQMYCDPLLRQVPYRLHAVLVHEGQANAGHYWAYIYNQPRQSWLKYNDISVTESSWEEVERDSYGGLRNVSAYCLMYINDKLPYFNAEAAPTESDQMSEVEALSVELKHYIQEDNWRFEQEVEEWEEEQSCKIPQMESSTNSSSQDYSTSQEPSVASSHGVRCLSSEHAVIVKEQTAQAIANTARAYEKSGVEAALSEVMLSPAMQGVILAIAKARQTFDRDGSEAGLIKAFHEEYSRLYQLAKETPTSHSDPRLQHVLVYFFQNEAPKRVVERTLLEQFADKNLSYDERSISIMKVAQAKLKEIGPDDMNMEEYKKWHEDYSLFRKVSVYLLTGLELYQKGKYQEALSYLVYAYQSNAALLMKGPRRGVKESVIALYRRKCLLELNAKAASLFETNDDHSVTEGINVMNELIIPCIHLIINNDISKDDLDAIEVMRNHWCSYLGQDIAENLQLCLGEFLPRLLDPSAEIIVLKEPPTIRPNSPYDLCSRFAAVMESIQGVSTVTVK
Method in brief: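 Full-length His-tagged USP28 (1-1077, Expi293F-expressed; […]) was preincubated 30 min with compound (25 μM–1.3 nM, 10-point 3-fold) in 20 mM Tris-HCl pH 8.0, 3 mM BME, 0.03% BGG, 0.01% Triton X-100. Ub-Rh110 (25 nM) was then added for 45 min at room temperature, stopped with citric acid, and read by fluorescence (485/535 nm).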

Compound	IC50 [nM]
Cc1ccc2c(N)c(C(=O)N[C@@H]3Cc4ccc(N5CCNCC5)nc4[C@@H](C)C3)sc2n1 (single isomer, unassigned) [Example 205]	200 to 2000
Cc1cc(C)c2c(N)c(C(=O)N[C@H]3COc4cc(N5CC[C@H]6CNC[C@H]65)cc(F)c4C3)sc2n1 (single isomer, unassigned) [Example 222]	1 to 50
Cc1cc(C)c2c(N)c(C(=O)N[C@H]3COc4cc(N5CC[C@@H]6CNC[C@@H]65)cc(F)c4C3)sc2n1 (single isomer, unassigned) [Example 223]	1 to 50
CO[C@H]1CN(c2cc3c(cc2C#N)C[C@@H](NC(=O)c2sc4nc(C)ccc4c2N)CO3)C[C@@H]1N [Example 177, 3-amino-N-[(3R)-7-[(3S,4S)-3-amino-4-methoxypyrrolidin-1-yl]-6-cyano-3-4-dihydro-2H-1-benzopyran-3-yl]-6-methylthieno[2,3-b]pyridine-2-carboxamide]	1 to 50
CO[C@H]1CN(c2ccc3c(c2C#N)CC[C@H](NC(=O)c2sc4nc(C)ccc4c2N)C3)C[C@@H]1N [Example 178, 3-amino-N-[(2S)-6-[(3S,4S)-3-amino-4-methoxypyrrolidin-1-yl]-5-cyano-1,2,3,4-tetrahydronaphthalen-2-yl]-6-methylthieno[2,3-b]pyridine-2-carboxamide]	1 to 50
CO[C@H]1CN(c2ccc3c(n2)OC[C@H](NC(=O)c2sc4nc(C)cnc4c2N)C3)C[C@@H]1N [Example 181, 7-amino-N-[(3R)-7-[(3S,4S)-3-amino-4-methoxypyrrolidin-1-yl]-2H,3H,4H-pyrano[2,3-b]pyridin-3-yl]-3-methylthieno[2,3-b]pyrazine-6-carboxamide]	200 to 2000
CCO[C@H]1CN(c2ccc3c(n2)OC[C@H](NC(=O)c2sc4nc(C)cnc4c2N)C3)C[C@@H]1N [Example 182, 7-amino-N-[(3R)-7-[(3S,4S)-3-amino-4-ethoxypyrrolidin-1-yl]-2H,3H,4H-pyrano[2,3-b]pyridin-3-yl]-3-methylthieno[2,3-b]pyrazine-6-carboxamide]	200 to 2000
CO[C@H]1CN(c2nc3c(cc2F)C[C@@H](NC(=O)c2sc4nc(C)ccc4c2N)CC3)C[C@@H]1N [Example 183, 3-amino-N-[(6S)-2-[(3S,4S)-3-amino-4-methoxypyrrolidin-1-yl]-3-fluoro-5,6,7,8-tetrahydroquinolin-6-yl]-6-methylthieno[2,3-b]pyridine-2-carboxamide]	50 to 200
Cc1ccc2c(N)c(C(=O)N[C@H]3COc4cc(N5CCO[C@H]6CNC[C@H]65)ccc4C3)sc2n1 [Example 184, N-[(3R)-7-[(4aR, 7aS)-octahydropyrrolo[3,4-b]morpholin-4-yl]-3,4-dihydro-2H-1-benzopyran-3-yl]-3-amino-6-methylthieno[2,3-b]pyridine-2-carboxamide]	1 to 50
Cc1ccc2c(N)c(C(=O)N[C@H]3COc4cc(N5CCO[C@@H]6CNC[C@@H]65)ccc4C3)sc2n1 [Example 185, N-[(3R)-7-[(4aS,7aR)-octahydropyrrolo[3,4-b]morpholin-4-yl]-3,4-dihydro-2H-1-benzopyran-3-yl]-3-amino-6-methylthieno[2,3-b]pyridine-2-carboxamide]	1 to 50
CO[C@H]1CN(c2ccc3c(c2)CC[C@H](NC(=O)c2cnc4c(c2)C2CC2CN4)C3)C[C@@H]1N (stereo partly drawn) [Example 188, N-[(2S)-6-[(3S,4S)-3-amino-4-methoxypyrrolidin-1-yl]-1,2,3,4-tetrahydronaphthalen-2-yl]-5H,6H,6aH,7H,7aH-cyclopropa[c]1,8-naphthyridine-2-carboxamide]	200 to 2000
CO[C@H]1CN(c2ccc3c(c2)CC[C@H](NC(=O)c2cnc4c(c2)[C@@H]2C[C@@H]2CN4)C3)C[C@@H]1N [Example 189, (6aS,7aR)-N-[(2S)-6-[(3S,4S)-3-amino-4-methoxypyrrolidin-1-yl]-1,2,3,4-tetrahydronaphthalen-2-yl]-5H,6H,6aH,7H,7aH-cyclopropa[c]1,8-naphthyridine-2-carboxamide]	200 to 2000
CO[C@H]1CN(c2ccc3c(c2)CC[C@H](NC(=O)c2cnc4c(c2)[C@H]2C[C@H]2CN4)C3)C[C@@H]1N [Example 190, (6aR,7aS)-N-[(2S)-6-[(3S,4S)-3-amino-4-methoxypyrrolidin-1-yl]-1,2,3,4-tetrahydronaphthalen-2-yl]-5H,6H,6aH,7H,7aH-cyclopropa[c]1,8-naphthyridine-2-carboxamide]	> 2000
O=C(N[C@H]1CCc2cc(N3CC4CCC(C3)N4)cc(F)c2C1)c1cnc2c(c1)[C@@H]1C[C@@H]1CN2 [Example 191, (6aS,7aR)-N-[(2S)-6-{3,8-diazabicyclo[3.2.1]octan-3-yl}-8-fluoro-1,2,3,4-tetrahydronaphthalen-2-yl]-5H,6H,6aH,7H,7aH-cyclopropa[c]1,8-naphthyridine-2-carboxamide]	> 2000
O=C(N[C@H]1CCc2cc(N3CC4CCC(C3)N4)cc(F)c2C1)c1cnc2c(c1)[C@H]1C[C@H]1CN2 [Example 192, (6aR,7aS)-N-[(2S)-6-{3,8-diazabicyclo[3.2.1]octan-3-yl}-8-fluoro-1,2,3,4-tetrahydronaphthalen-2-yl]-5H,6H,6aH,7H,7aH-cyclopropa[c]1,8-naphthyridine-2-carboxamide]	50 to 200
O=C(N[C@@H]1CCc2cc(N3CC4CCC(C3)N4)cc(F)c2C1)c1cnc2c(c1)[C@@H]1C[C@@H]1CN2 [Example 193, (6aS,7aR)-N-[(2R)-6-{3,8-diazabicyclo[3.2.1]octan-3-yl}-8-fluoro-1,2,3,4-tetrahydronaphthalen-2-yl]-5H,6H,6aH,7H,7aH-cyclopropa[c]1,8-naphthyridine-2-carboxamide]	200 to 2000
O=C(N[C@@H]1CCc2cc(N3CC4CCC(C3)N4)cc(F)c2C1)c1cnc2c(c1)[C@H]1C[C@H]1CN2 [Example 194, (6aR,7aS)-N-[(2R)-6-{3,8-diazabicyclo[3.2.1]octan-3-yl}-8-fluoro-1,2,3,4-tetrahydronaphthalen-2-yl]-5H,6H,6aH,7H,7aH-cyclopropa[c]1,8-naphthyridine-2-carboxamide]	200 to 2000
N#Cc1c(N2CC3CCC(C2)N3)cc(F)c2c1CC[C@H](NC(=O)c1cnc3c(c1)[C@@H]1C[C@@H]1CN3)C2 [Example 195, (6aS,7aR)-N-[(2S)-5-cyano-6-{3,8-diazabicyclo[3.2.1]octan-3-yl}-8-fluoro-1,2,3,4-tetrahydronaphthalen-2-yl]-5H,6H,6aH,7H,7aH-cyclopropa[c]1,8-naphthyridine-2-carboxamide]	1 to 50
N#Cc1c(N2CC3CCC(C2)N3)cc(F)c2c1CC[C@H](NC(=O)c1cnc3c(c1)[C@H]1C[C@H]1CN3)C2 [Example 196, (6aR,7aS)-N-[(2S)-5-cyano-6-{3,8-diazabicyclo[3.2.1]octan-3-yl}-8-fluoro-1,2,3,4-tetrahydronaphthalen-2-yl]-5H,6H,6aH,7H,7aH-cyclopropa[c]1,8-naphthyridine-2-carboxamide]	> 2000
N#Cc1c(N2CC3CCC(C2)N3)cc(F)c2c1CC[C@@H](NC(=O)c1cnc3c(c1)[C@@H]1C[C@@H]1CN3)C2 [Example 197, (6aS,7aR)-N-[(2R)-5-cyano-6-{3,8-diazabicyclo[3.2.1]octan-3-yl}-8-fluoro-1,2,3,4-tetrahydronaphthalen-2-yl]-5H,6H,6aH,7H,7aH-cyclopropa[c]1,8-naphthyridine-2-carboxamide]	> 2000
N#Cc1c(N2CC3CCC(C2)N3)cc(F)c2c1CC[C@@H](NC(=O)c1cnc3c(c1)[C@H]1C[C@H]1CN3)C2 [Example 198, (6aR,7aS)-N-[(2R)-5-cyano-6-{3,8-diazabicyclo[3.2.1]octan-3-yl}-8-fluoro-1,2,3,4-tetrahydronaphthalen-2-yl]-5H,6H,6aH,7H,7aH-cyclopropa[c]1,8-naphthyridine-2-carboxamide]	200 to 2000
CO[C@H]1CN(c2cc3c(c(F)c2C#N)C[C@@H](NC(=O)c2sc4nc(C)cnc4c2N)CO3)C[C@@H]1N [Example 199, 7-amino-N-[(3R)-7-[(3S,4S)-3-amino-4-methoxypyrrolidin-1-yl]-6-cyano-5-fluoro-3,4-dihydro-2H-1-benzopyran-3-yl]-3-methylthieno[2,3-b]pyrazine-6-carboxamide]	1 to 50
CO[C@H]1CN(c2cc3c(c(F)c2C#N)C[C@@H](NC(=O)c2sc4nc(C)ccc4c2N)CO3)C[C@@H]1N [Example 200]	1 to 50
